In ChEMBL document CHEMBL3779812, “Synthesis and evaluation of the cytotoxic activity of novel ethyl 4-[4-(4-substitutedpiperidin-1-yl)]benzyl-phenylpyrrolo[1,2-a]quinoxaline-carboxylate derivatives in myeloid and lymphoid leukemia cell lines” (Eur J Med Chem, 2016):

Tests used:
[1] = Antiproliferative activity against human HL60 cells measured after 3 days by MTS assay; assay type: functional, cell-based; conditions: HL-60, 72 h
PBMC = assay: Cytotoxicity against PHA induced human PBMC after 3 days by MTS assay; assay type: cell-based; conditions: 72 h
K562 [2] = assay: Antiproliferative activity against human K562 cells measured after 3 days by MTS assay; assay type: functional, cell-based; conditions: K562, 72 h
[3] = Antiproliferative activity against human U937 cells measured after 3 days by MTS assay; assay type: functional, cell-based; conditions: U-937, 72 h
Jurkat = assay: Antiproliferative activity against human Jurkat cells measured after 3 days by MTS assay; assay type: functional, cell-based; conditions: 72 h
[4] = Antiproliferative activity against human U266 cells measured after 3 days by MTS assay; assay type: functional, cell-based; conditions: U-266, 72 h
[5] = Selectivity index, ratio of IC50 for human PBMC to IC50 for human U266 cells; set-up: species or system U-266
[6] = Selectivity index, ratio of IC50 for human PBMC to IC50 for human U937 cells; set-up: species or system U-937
K562 [7] = assay: Induction of apoptosis in human K562 cells at 10 uM measured on day 3 by APC-Annexin-V staining based flow cytometry; assay type: functional
[8] = Selectivity index, ratio of IC50 for human PBMC to IC50 for human K562 cells
[9] = Selectivity index, ratio of IC50 for human PBMC to IC50 for human Jurkat cells

Row | SMILES | IC50 (K562 [2]) | IC50 (Jurkat) | IC50 [1] | IC50 (PBMC) | IC50 [3] | IC50 [4] | Ratio IC50 [5] | Ratio IC50 [6] | Activity (K562 [7]) | Ratio IC50 [8] | Ratio IC50 [9]
1 | O=c1[nH]c2ccccc2n1C1CCN(Cc2ccc(-c3nc4cc5[nH]cnc5cc4nc3-c3ccccc3)cc2)CC1 | 17 µM | 3.5 µM | 5.5 µM | > 50 µM | 8 µM |  |  |  |  |  | 
2 | CCOC(=O)c1cc(-c2ccccc2)n2c1c(-c1ccc(CN3CCC(c4nnc(-c5ccccn5)[nH]4)CC3)cc1)nc1ccccc12 | 12 µM | 5 µM | 24 µM | 50 µM | 11 µM | 8 µM |  |  |  |  | 
3 | CCOC(=O)c1c(-c2ccccc2)cn2c1c(-c1ccc(CN3CCC(c4nnc(-c5ccccn5)[nH]4)CC3)cc1)nc1ccccc12 | 14 µM | 5 µM | 12 µM | 16 µM | 7 µM | > 50 µM |  |  |  |  | 
4 | O=c1[nH]c2ccccc2n1C1CCN(Cc2ccc(-c3nc4ccccc4n4ccc(-c5ccccc5)c34)cc2)CC1 |  |  | 2 µM |  |  |  |  |  |  |  | 
5 | CCOC(=O)c1cc2c(-c3ccc(CN4CCC(n5c(=O)[nH]c6ccccc65)CC4)cc3)nc3ccccc3n2c1-c1ccccc1 | 8.5 µM | 6.5 µM | > 50 µM | > 50 µM | > 50 µM | > 50 µM |  |  |  |  | 
6 | O=c1[nH]c2ccccc2n1C1CCN(Cc2ccc(-c3nc4ccccc4n4cccc34)cc2)CC1 | 4.5 µM |  |  |  |  |  |  |  |  |  | 
7 | CCOC(=O)c1cc(-c2ccccc2)n2c1c(-c1ccc(CN3CCC(n4c(=O)[nH]c5ccccc54)CC3)cc1)nc1ccccc12 | 8 µM | 4 µM | 6 µM | > 50 µM | 9 µM | 9 µM |  |  |  |  | >12.5
8 | O=c1[nH]c2ccccc2n1C1CCN(Cc2ccc(-c3nc4ccccc4n4cc5ccccc5c34)cc2)CC1 | 5 µM | 5 µM | 5 µM |  |  |  |  |  |  |  | 
9 | CCOC(=O)c1cn2c(c(-c3ccc(CN4CCC(c5nnc(-c6ccccn6)[nH]5)CC4)cc3)nc3ccccc32)c1-c1ccccc1 | 7 µM | 2 µM | 5 µM | 8 µM | 7 µM | 5 µM |  |  |  |  | 
10 | CCOC(=O)c1cn2c(c(-c3ccc(CN4CCC(n5c(=O)[nH]c6ccccc65)CC4)cc3)nc3ccccc32)c1-c1ccccc1 | 9 µM | 4 µM | 3.5 µM | 41.3 µM | > 50 µM | 10 µM |  |  |  |  | 
11 | O=c1cc(N2CCOCC2)oc2c(-c3ccccc3)cccc12 [LY-294002] | 38 µM | 22 µM | 14 µM | > 50 µM | 14 µM | 46 µM |  |  |  |  | 

Continued, in another order:

Row | IC50 (K562 [2]) | IC50 (Jurkat) | SMILES | IC50 [1] | IC50 (PBMC) | IC50 [3] | IC50 [4] | Ratio IC50 [5] | Ratio IC50 [6] | Activity (K562 [7]) | Ratio IC50 [8] | Ratio IC50 [9]
12 | 7 µM | 6 µM | CCOC(=O)c1cc(-c2ccccc2)n2c1c(-c1ccc(CN3CCC(c4nc5ccc(F)cc5[nH]4)CC3)cc1)nc1ccccc12 | 8 µM | 50 µM | 4 µM | 4 µM | 12.5 | 12.5 |  |  | 
13 | 3 µM | 5 µM | CCOC(=O)c1cn2c(c(-c3ccc(CN4CCC(c5nc6ccc(F)cc6[nH]5)CC4)cc3)nc3ccccc32)c1-c1ccccc1 | 10 µM | > 50 µM |  | 18 µM |  |  | 92% | >16.7 | 
14 | 3 µM | 3.5 µM | CCOC(=O)c1cc2c(-c3ccc(CN4CCC(c5nc6ccc(F)cc6[nH]5)CC4)cc3)nc3ccccc3n2c1-c1ccccc1 | 3 µM | 13 µM | 3 µM | 3 µM |  |  |  |  | 
15 | 3.5 µM | 3 µM | CCOC(=O)c1cc2c(-c3ccc(CN4CCC(c5nnc(-c6ccccn6)[nH]5)CC4)cc3)nc3ccccc3n2c1-c1ccccc1 | 7 µM | 12 µM | 8 µM | 3 µM |  |  |  |  | 
16 | 4 µM | 41 µM | CCOC(=O)c1c(-c2ccccc2)cn2c1c(-c1ccc(CN3CCC(n4c(=O)[nH]c5ccccc54)CC3)cc1)nc1ccccc12 | > 50 µM | > 50 µM | > 50 µM | > 50 µM |  |  |  | >12.5 | 
17 | 3 µM | 5 µM | CCOC(=O)c1c(-c2ccccc2)cn2c1c(-c1ccc(CN3CCC(c4nc5ccc(F)cc5[nH]4)CC3)cc1)nc1ccccc12 | 19 µM | 14 µM | 21 µM | 3.5 µM |  |  |  |  | 
